Patent US20050054629A1, “Compounds and methods of treating cell proliferative diseases” (priority 2002, published 2005)

How the values were obtained:
HCT116 cells = assay: Anchorage-independent growth assay (soft agar / Matrigel); type: cell-based, human; conditions: Homo sapiens, HCT-116, 168 h; HCT116, 3-dimensional growth, 1 week
Description: In order to evaluate the effect of the compounds on the capacity of tumor cells to grow without anchorage, HCT116 cells were seeded either in agar or in Matrigel (BD, France). For 3D growth experiment in soft agar in 24-well plates, 5.10^3 HCT116 cells were resuspended in 250 μl of complete medium containing 0.3% soft-agar (Difco) and different concentrations of compound (0.1, 1, 10, 17.5, 25 and 50 μM). Cells were then poured on a solidified layer of medium containing 0.5% of soft-agar plus the compound at the same concentration than in the upper layer. Cells were incubated at 37° C. for 1 week before they were analysed using a phase contrast microscope (Nikon). For 3D growth experiment in Matrigel, 10^4 HCT116 cells were resuspended in 300 μl of complete medium containing 5 mg/ml Matrigel (BD, France) and different concentrations of compound (0.1, 1, 10, 17.5, 25 and 50 μM), and poured in 24-well plates. After solidification at 37° C. for 15 min., complete medium containing the compound was added to each well. Cells were incubated for 1 week before they were collected using Matrisperse (BD, France) according to the manufacturer's instructions. After recovery, alive cells were counted with trypan blue exclusion.

Ras = assay: Ras-dependant signaling pathway analysis (reporter system); type: cell-based; set-up: key: −: no effect of the compound was observed; +: an effect of the compound was observed
Description: (§1) The impact of the compounds on Ras and Rac signaling pathways was analysed with two reporter systems described by Imler (Nature 1988) and Lin (Science, 1995) respectively on one hand, and by a colony formation assay in the presence of constitutively activated Ras (RasV12) and Rac (RacV12) on the other hand. For this latter experiment, fifty percent confluent NIH3T3 cells in a 10 cm diameter petri dish were transfected with 0.5 μg pSV2-RasV12 or 0.5 μg pEXV RacV12 plasmids plus 100 ng of pSV2-neomycin plasmid using Lipofectamine-Plus reagent (Invitrogen) according to the manufacturer's instructions. Forty-eight hours later, cells were trypsinised, splitted to ⅓, and incubated in the presence of complete medium supplemented with 400 μg/ml geneticin (Invitrogen) and different doses of compound (1, 10, 17.5, 25 and 50 μM) until emerging resistant clones appear (2-3 weeks). The medium was renewed every 3 days. Colonies with a minimum of 50 cells were counted after staining with Fuschin 2%.

NIH3T3 cells = assay: Colony formation assay with constitutively activated Ras (RasV12) and Rac (RacV12); type: cell-based, mouse; set-up: key to Colony formation: −: no effect of the compound was observed; +: an effect of the compound was observed
Description: as §1

MCF10-A = assay: Cytotoxicity assay (MTT), 6 days; type: cell-based; conditions: Homo sapiens, MCF-10A, 144 h, 6 days of treatment, read-out: Toxicity 6d (IC 50, μM) MCF10-A
Procedure, shortened: (§2)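 Compound was added 24 h after seeding at six concentrations from 0 to 50 μM. Six days later, viability was assessed by MTT reduction and absorbance at 550 nm, giving IC50 values from triplicate assays.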

H460 lung carcinoma = assay: Cytotoxicity assay (MTT), 6 days; type: cell-based; conditions: Homo sapiens, NCI-H460, 144 h, 6 days of treatment, read-out: Toxicity 6d (IC 50, μM) H460
Procedure, shortened: as §2

MCF-7 breast carcinoma = assay: Cytotoxicity assay (MTT), 6 days; type: cell-based; conditions: Homo sapiens, MCF7, 144 h, 6 days of treatment, read-out: Toxicity 6d (IC 50, μM) MCF7
Procedure, shortened: as §2

[1] = tested on: MDA-MB-231 breast carcinoma; assay: Cytotoxicity assay (MTT), 6 days; type: cell-based; conditions: Homo sapiens, MDA-MB-231, 144 h, 6 days of treatment, read-out: Toxicity 6d (IC 50, μM) MDA231
Procedure, shortened: as §2

MRC-5 = assay: Cytotoxicity assay (MTT), 6 days; type: cell-based; conditions: Homo sapiens, MRC5, 144 h, 6 days of treatment, read-out: Toxicity 6d (IC 50, μM) MRC-5
Procedure, shortened: as §2

NIH3T3 mouse fibroblasts = assay: Cytotoxicity assay (MTT), 6 days; type: cell-based; conditions: NIH3T3, 144 h, 6 days of treatment, read-out: Toxicity 6d (IC 50, μM) NIH3T3
Procedure, shortened: as §2

[2] = tested on: HCT116 colon adenocarcinoma; assay: Cytotoxicity assay (MTT), 6 days; type: cell-based, human; conditions: Homo sapiens, HCT-116, 144 h, 6 days of treatment, read-out: Toxicity 6d (IC 50, μM) HCT116
Procedure, shortened: as §2

HCT116 = assay: Cytoskeleton analysis, actin staining (FITC-phalloidin); type: cell-based, human; conditions: 24 h treatment
Description: (§3) Since major rearrangements of cytoskeleton are observed in tumor cells and since the small GTPases are known to regulate these events, analysis of actin cytoskeleton was performed. Subconfluent cells seeded onto coverslips were treated with different concentration of compound (1, 10, 17.5, 25 and 50 μM) or vehicle for 24 h, before being fixed in 4% formaldehyde for 15 min., permeabilized in 0.2% Triton X100 for 5 minutes and incubated in PowerBlock (Biogenex) for 10 min. Actin filaments were stained with 0.5 μg/ml fluorescein isothiocyanate (FITC)-labelled phalloidin for 1 hour. Analysis was performed using an inverted fluorescent microscope.

H460 = assay: as above; type: cell-based, human; conditions: 24 h treatment
Description: as §3

cell architecture = assay: Cell architecture modification, phase contrast; type: cell-based; set-up: key: −: no effect of the compound was observed; +: an effect of the compound was observed
MDA-MB-231 cells [3] = assay: Migration assay (Boyden chamber, non-coated filters); type: cell-based, human; conditions: MDA-MB-231, Boyden chamber
Description: One day after seeding, 10^6 MDA-MB-231 cells were treated overnight with different concentrations of compounds (1, 10, 17.5, 25 and 50 μM). Cells were collected with Versene (Invitrogen), counted with trypan blue exclusion, rinsed twice in serum-free medium containing 0.1% BSA and resuspended in serum-free medium containing 0.1% BSA plus the appropriate concentration of compound. 10^5 treated cells were placed in the upper chamber. Medium containing 10% of FBS plus the appropriate concentration of compound was placed in the lower chamber as a chemoattractant. The Boyden chamber was incubated 6 hours at 37° C. before the cells were fixed and stained with Diff-Quick (Dade-Berhing). Cells on the upper part of the filters were removed using a cotton swab. Cells on the underside of the filters were visualised and counted under light microscope.
The migration assay was performed the same way, using non-coated filters.

MDA-MB-231 cells [4] = assay: Matrigel invasion assay (Boyden chamber); type: cell-based, human
Procedure, shortened: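 MDA-MB-231 cells were pretreated overnight with compound (1, 10, 17.5, 25, 50 μM). 10^5 cells in serum-free 0.1% BSA medium with compound were placed on 8 μm membranes coated with Matrigel (125 μg/cm^2), with 10% FBS plus compound below. After 6 h at 37 °C, cells on the filter underside were Diff-Quick stained and counted.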

NIH3T3 = assay: Cytoskeleton analysis, actin staining (FITC-phalloidin); type: cell-based, mouse
Description: as §3

Structure (SMILES): CCCc1ccccc1OCCCCCOc1coc(CO)cc1=O [EH18900, 5-[5-(2-Propylphenyloxy)pentyloxy]-2-(hydroxymethyl)-4H-pyran-4-one]
- IC50 (HCT116 cells): 1 to 5 µM
- Small GTPases activities Ras (Ras): −
- Colony formation (NIH3T3 cells): +
- Ras-dependent neoR clones formation (NIH3T3 cells; NIH3T3 transfected with RasVal12): inhibited
- IC50 (MCF10-A): 50 µM
- IC50 (H460 lung carcinoma): 40 µM
- IC50 (MCF-7 breast carcinoma): 30 µM
- IC50 [1]: > 50 µM
- IC50 (MRC-5): 17.5 µM
- IC50 (NIH3T3 mouse fibroblasts): 0.5 µM
- IC50 [2]: 35 µM
- Cell architecture modification actin staining HCT116 (HCT116): cell spreading
- Cell architecture modification actin staining H460 (H460): cell spreading
- Cell architecture modification phase contrast (cell architecture): +
- Migration (MDA-MB-231 cells [3]): no effect
- concentration giving an increase in invasive properties of MDA-MB-231 cells (MDA-MB-231 cells [4]): 50 µM
- Invasion (MDA-MB-231 cells [4]; MDA-MB-231, Boyden chamber, matrigel): Increase
- Cell architecture modification actin staining (R: ruffles; FC: focal complexes) NIH3T3 (NIH3T3; 24 h treatment): R-, FC+
- concentration at which specific inhibition of membrane ruffles and increase in the number of stress fibers was observed (NIH3T3; NIH3T3, actin staining): 10 µM
